Legend:
[1] = dehydration test (weight loss over time); format: physicochemical; settings: glycerol added to alginate
Experimental: One of the main advantages of using hydrogels as a substrate for wound dressings is their ability to retain moisture at the wound site. However, hydrogels may be prone to rapid dehydration, which can compromise the integrity of the dressing and ultimately affect its functionality. Rapid dehydration of the hydrogels can pose a challenge for the clinical application of gel-based dressings. The dehydration rate of the dermal patch was evaluated by measuring its weight loss at 37° C. and it was observed that the alginate patch was completely dehydrated in less than 10 hr (FIG. 26A). Influential parameters on dehydration rates including alginate concentration and dressing thickness were altered for these experiments. […]
The effect of Mepitel® on the dehydration rate of the hydrogel dressing was studied. Dressings with 2% w/v alginate were covered by Mepitel® and their weight were measured in 24 hr. […]
Dehydration and hydration tests: Square gel sheets (15 mm×15 mm) made of two different concentrations of alginate (2% and 6% w/v) and two different thicknesses (1.5 mm and 3 mm) were fabricated by crosslinking with agarose sheets containing CaCl2 similar to preparation of the patches. […] The weight was then recorded during definite time intervals for 3 hours and the degree of swelling was then obtained by determining the gained weight for each sample.

[2] = antibacterial efficiency of UV-sterilized gentamicin versus drug not treated with UV; format: cell-based; settings: UV 365 nm, 200 mW/cm^2
Description: In a representative example, multifunctional dressings were made according to the embodiments described herein comprising an array of porous color-changing pH sensors (e.g., the sensing elements 14) and drug-eluting scaffolds (e.g., the therapeutic agent delivery elements 16), which were embedded within an alginate dressing (FIG. 16A). The array of porous sensors (each sensor was 12×12 mm in size) comprised three-dimensionally (3D)-printed color-changing alginate fibers that were loaded with mesoporous resin beads doped with a pH-responsive dye (FIGS. 16A-16G). Alginate is a naturally-derived polysaccharide that can be used as a dressing material for epidermal applications due to its biocompatibility, hemostatic properties, and non-adhesive characteristics that facilitate the removal of the dressing without trauma and pain (14-18). With reference to FIG. 6A and FIGS. 16B and 16C, to print the sensors, a microextruder 60 comprising two coaxial needles 62 and 64 (FIG. 16C and FIGS. 22A-22B) mounted on a 3D printer (e.g., a Prusa i3) was used. The porosity of the sensors was adjusted by changing the diameter of the fibers while keeping the spacing between fibers constant. Encapsulation of the beads within the hydrogel fibers prevented the beads from dispersing in the wound area while providing a biocompatible interface with the wound site. […]

P. aeruginosa = assay: semi quantitative bacteria inhibition assay of drug-eluting scaffolds on agar plate; format: cell-based, Pseudomonas aeruginosa; settings: 3 mg/ml dosage
Experimental: To examine the antibacterial effectiveness of the drug-eluting scaffolds, a semi quantitative bacteria inhibition assay was performed using P. aeruginosa. […] Scaffolds with no drugs and filter paper impregnated with the same amount of drugs were used as negative and positive controls, respectively. Gentamicin is widely used as an effective antibiotic agent against a wide range of Gram-negative and Gram-positive bacteria, including P. aeruginosa (25-27). […] The observed white ring around the scaffold within the inhibited zone was suspected to be infected by the bacteria. Therefore, we collected swab samples from three different zones near the scaffold (point 1), in the white region (point 2), and at the edge of the ring (point 3), then plated the samples overnight on another agar plate. […] The formation of the white ring around the scaffold can be attributed to the interaction of the phosphate ions in the agar and calcium ions that were releasing from the calcium alginate scaffolds.
Bacteria viability loss assay: Drug-eluting scaffolds were embedded in alginate patches as described previously; patches were then placed on top of a Tryptic soy agar (TSA, Sigma-Aldrich) plate on which Pseudomonas aeruginosa bacteria were spread and the effect of the antimicrobial was investigated after incubation at 37° C. for 18 hr.

Compound | reduction of dehydration rate [1] [%] | impact of UV exposure on antibacterial efficiency of the drug [2] | effectiveness of topical delivery in the in vitro inhibition assay (P. aeruginosa)
OCC(O)CO [glycerol] | 30 | – | –
gentamicin sulfate | – | no impact | demonstrated the effectiveness
